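Five compound concentrations were applied to cells in 96-well plates for 48 hours; endpoints were derived by simple linear interpolation of the resulting dose-response curve. GI50 = concentration required for 50% inhibition of growth.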 Activity calls are given as the source filed them. No stated cut-off is given here; in the data, active = GI50 up to about 1.1 µM and inactive = higher.
Tests used:
Assay in all cases: inhibition of tumour cell growth, NCI panel, 48 h
[1] = test system: M14
[2] = test system: SK-OV-3
[3] = test system: UACC-62
[4] = test system: MDA-N
[5] = test system: UACC-257
[6] = test system: SK-MEL-2
[7] = test system: NCI-H23
[8] = test system: SNB-19
[9] = test system: RPMI-8226
[10] = test system: K562
[11] = test system: RXF 393
[12] = test system: DU-145
[13] = test system: CAKI-1
[14] = test system: OVCAR-8
[15] = test system: SK-MEL-28
[16] = test system: HOP-62
[17] = test system: UO-31
[18] = test system: HCT-116
[19] = test system: HCC 2998
[20] = test system: TK-10
[21] = test system: NCI/ADR-RES
[22] = test system: LOX IMVI
[23] = test system: T47D
[24] = test system: SF-295
[25] = test system: OVCAR-4
[26] = test system: NCI-H460
[27] = test system: MDA-MB-435
[28] = test system: IGROV-1
[29] = test system: BT-549
[30] = test system: CCRF-CEM
[31] = test system: SK-MEL-5
[32] = test system: A549
[33] = test system: U-251
[34] = test system: Malme-3M
[35] = test system: PC-3
[36] = test system: SNB-75
[37] = test system: COLO 205
[38] = test system: MCF7
[39] = test system: ACHN
[40] = test system: NCI-H522
[41] = test system: EKVX
[42] = test system: SF-539
[43] = test system: OVCAR-5
[44] = test system: Hs-578T
[45] = test system: SN12C
[46] = test system: OVCAR-3
[47] = test system: HOP-92
[48] = test system: SF-268
[49] = test system: MDA-MB-231
[50] = test system: HT-29
[51] = test system: A498
[52] = test system: NCI-H226
[53] = test system: SR
[54] = test system: HCT-15
[55] = test system: KM12
[56] = test system: HL-60
[57] = test system: SW-620
[58] = test system: 786-0
[59] = test system: MOLT-4

Compound: O=C1c2cccnc2C(=O)C2C3C=CC(C3)C12 (configuration not stated)
- GI50 [1]: 13.3 µM (inactive)
- GI50 [2]: 18.3 µM (inactive)
- GI50 [3]: 3.37 µM (inactive)
- GI50 [4]: 3.61 µM (inactive)
- GI50 [5]: 13.5 µM (inactive)
- GI50 [6]: 5.08 µM (inactive)
- GI50 [7]: 12.1 µM (inactive)
- GI50 [8]: 15 µM (inactive)
- GI50 [9]: 2.49 µM (inactive)
- GI50 [10]: 2.94 µM (inactive)
- GI50 [11]: 2.69 µM (inactive)
- GI50 [12]: 6.92 µM (inactive)
- GI50 [13]: 14.4 µM (inactive)
- GI50 [14]: 5.48 µM (inactive)
- GI50 [15]: 15.2 µM (inactive)
- GI50 [16]: 6.68 µM (inactive)
- GI50 [17]: 11.8 µM (inactive)
- GI50 [18]: 3.85 µM (inactive)
- GI50 [19]: 15.8 µM (inactive)
- GI50 [20]: 18 µM (inactive)
- GI50 [21]: 4.52 µM (inactive)
- GI50 [22]: 3.66 µM (inactive)
- GI50 [23]: 3.01 µM (inactive)
- GI50 [24]: 12.6 µM (inactive)
- GI50 [25]: 5.01 µM (inactive)
- GI50 [26]: 3.49 µM (inactive)
- GI50 [27]: 2.25 µM (inactive)
- GI50 [28]: 10.6 µM (inactive)
- GI50 [29]: 11.5 µM (inactive)
- GI50 [30]: 1.18 µM (inactive)
- GI50 [31]: 10.8 µM (inactive)
- GI50 [32]: 12.4 µM (inactive)
- GI50 [33]: 4.23 µM (inactive)
- GI50 [34]: 15.1 µM (inactive)
- GI50 [35]: 10.2 µM (inactive)
- GI50 [36]: 12.6 µM (inactive)
- GI50 [37]: 13.3 µM (inactive)
- GI50 [38]: 3.52 µM (inactive)
- GI50 [39]: 7.53 µM (inactive)
- GI50 [40]: 3.27 µM (inactive)
- GI50 [41]: 13.4 µM (inactive)
- GI50 [42]: 2.4 µM (inactive)
- GI50 [43]: 18.3 µM (inactive)
- GI50 [44]: 9.66 µM (inactive)
- GI50 [45]: 12.8 µM (inactive)
- GI50 [46]: 13.5 µM (inactive)
- GI50 [47]: 12.9 µM (inactive)
- GI50 [48]: 10.2 µM (inactive)
- GI50 [49]: 2.78 µM (inactive)
- GI50 [50]: 27.2 µM (inactive)
- GI50 [51]: 21.2 µM (inactive)
- GI50 [52]: 13 µM (inactive)
- GI50 [53]: 2.11 µM (inactive)
- GI50 [54]: 12 µM
- GI50 [55]: 14.5 µM (inactive)
- GI50 [56]: 1.74 µM (inactive)
- GI50 [57]: 4.41 µM (inactive)
- GI50 [58]: 11.1 µM (inactive)

Compound: CCN(CC)c1ccc2c(c1)Oc1ccc(N(C(C)=O)c3ccccc3)cc1C21OC(=O)c2ccccc21 (configuration not stated)
- GI50 [1]: 40.6 µM (inactive)
- GI50 [2]: > 100 µM (inactive)
- GI50 [3]: > 91.8 µM (inactive)
- GI50 [4]: 32.6 µM (inactive)
- GI50 [5]: > 100 µM (inactive)
- GI50 [6]: > 100 µM (inactive)
- GI50 [7]: > 68.4 µM (inactive)
- GI50 [8]: > 100 µM (inactive)
- GI50 [9]: 6.76 µM (inactive)
- GI50 [10]: 12.6 µM (inactive)
- GI50 [11]: > 26.1 µM (inactive)
- GI50 [12]: > 100 µM (inactive)
- GI50 [13]: > 100 µM (inactive)
- GI50 [14]: > 75.5 µM (inactive)
- GI50 [15]: > 100 µM (inactive)
- GI50 [16]: > 100 µM (inactive)
- GI50 [59]: 16.7 µM (inactive)
- GI50 [17]: 23.7 µM (inactive)
- GI50 [18]: 36.1 µM (inactive)
- GI50 [19]: > 100 µM (inactive)
- GI50 [20]: > 100 µM (inactive)
- GI50 [21]: > 61.8 µM (inactive)
- GI50 [22]: > 100 µM (inactive)
- GI50 [23]: 5.32 µM (inactive)
- GI50 [24]: 41.8 µM (inactive)
- GI50 [25]: > 82.8 µM (inactive)
- GI50 [26]: 65.9 µM (inactive)
- GI50 [27]: 21 µM (inactive)
- GI50 [28]: > 100 µM (inactive)
- GI50 [29]: 98.2 µM (inactive)
- GI50 [30]: 21.1 µM (inactive)
- GI50 [31]: 24.2 µM (inactive)
- GI50 [32]: 37.8 µM (inactive)
- GI50 [33]: > 77.3 µM (inactive)
- GI50 [34]: 53.3 µM (inactive)
- GI50 [35]: 13.1 µM (inactive)
- GI50 [36]: > 59.7 µM (inactive)
- GI50 [37]: > 64.1 µM (inactive)
- GI50 [38]: 40.3 µM (inactive)
- GI50 [39]: > 100 µM (inactive)
- GI50 [40]: 62.7 µM (inactive)
- GI50 [41]: 84.7 µM (inactive)
- GI50 [42]: > 100 µM (inactive)
- GI50 [43]: > 100 µM (inactive)
- GI50 [44]: 58.3 µM (inactive)
- GI50 [45]: > 100 µM (inactive)
- GI50 [46]: > 100 µM (inactive)
- GI50 [47]: > 67.3 µM (inactive)
- GI50 [48]: > 100 µM (inactive)
- GI50 [49]: > 100 µM (inactive)
- GI50 [50]: 32.3 µM (inactive)
- GI50 [51]: > 100 µM (inactive)
- GI50 [52]: > 100 µM (inactive)
- GI50 [53]: 23.3 µM (inactive)
- GI50 [54]: 92.7 µM
- GI50 [55]: 23 µM (inactive)
- GI50 [56]: 8.53 µM (inactive)
- GI50 [57]: 47.1 µM (inactive)
- GI50 [58]: > 100 µM (inactive)

From ChEMBL document CHEMBL1201862, “PubChem BioAssay data set” (2004)
